Assays:
Toxoplasma gondii [1] = experiment: Antitoxoplasma activity against Toxoplasma gondii RH tachyzoites isolated from human brain assessed as parasite growth inhibition after 48 hrs by hematoxylin-eosin staining based light microscopy; format: functional, organism-based
Plasmodium falciparum [2] = experiment: Antimalarial activity against schizont stage of atovaquone-resistant Plasmodium falciparum Tm90C2b infected in erythrocytes assessed as inhibition of [3H]hypoxanthine incorporation after 48 hrs by scintillation counting analysis; format: functional, organism-based
Toxoplasma gondii [3] = experiment: Antitoxoplasma activity against Toxoplasma gondii RH tachyzoites isolated from human brain assessed as parasite growth inhibition after 24 hrs by hematoxylin-eosin staining based light microscopy; format: functional, organism-based
[4] = Cytotoxicity against rhesus monkey LLC-MK2 cells assessed as cell viability after 48 hrs by MTS assay; format: cell-based, Macaca mulatta; settings: read-out: LD50
Plasmodium falciparum [5] = experiment: Antimalarial activity against schizont stage of chloroquine-resistant Plasmodium falciparum W2 infected in erythrocytes assessed as inhibition of [3H]hypoxanthine incorporation after 96 hrs by scintillation counting analysis; format: functional, organism-based
[6] = Stability of the compound in RPMI medium assessed as half life at 100 uM by HPLC analysis in presence of 10% human serum; format: physicochemical; settings: RPMI medium with 10% human serum
Plasmodium falciparum [7] = experiment: Antimalarial activity against schizont stage of chloroquine-susceptible Plasmodium falciparum 3D7 infected in erythrocytes assessed as inhibition of [3H]hypoxanthine incorporation after 96 hrs by scintillation counting analysis; format: functional, organism-based
[8] = Cytotoxicity against concanavalin A stimulated BALB/c mouse splenocytes after 72 hrs by alamar blue dye based plate reader analysis; format: cell-based, Splenocyte; settings: read-out: LD50
Plasmodium falciparum [9] = experiment: Antimalarial activity against schizont stage of chloroquine-resistant Plasmodium falciparum W2 infected in erythrocytes assessed as inhibition of [3H]hypoxanthine incorporation after 48 hrs by scintillation counting analysis; format: functional, organism-based
[10] = Chemical stability of the compound in aqueous phosphate buffer of pH 7.4 assessed as half life at 100 uM by HPLC analysis; format: physicochemical
Plasmodium falciparum [11] = experiment: Antimalarial activity against schizont stage of chloroquine-susceptible Plasmodium falciparum 3D7 infected in erythrocytes assessed as inhibition of [3H]hypoxanthine incorporation after 48 hrs by scintillation counting analysis; format: functional, organism-based
Plasmodium falciparum [12] = experiment: Antimalarial activity against schizont stage of atovaquone-resistant Plasmodium falciparum Tm90C2b infected in erythrocytes assessed as inhibition of [3H]hypoxanthine incorporation after 96 hrs by scintillation counting analysis; format: functional, organism-based
Plasmodium falciparum [13] = experiment: Ratio of ciprofloxacin IC50 to compound IC50 for chloroquine-susceptible Plasmodium falciparum 3D7 infected in erythrocytes after 48 hrs; format: functional
Plasmodium falciparum [14] = experiment: Ratio of ciprofloxacin IC50 to compound IC50 for atovaquone-resistant Plasmodium falciparum Tm90C2b infected in erythrocytes after 48 hrs; format: functional
[15] = Therapeutic index, ratio of LD50 for concanavalin A stimulated BALB/c mouse splenocytes to IC50 for chloroquine-susceptible Plasmodium falciparum 3D7 infected in erythrocytes; format: cell-based; settings: read-out: Ratio LD50/IC50
Plasmodium falciparum [16] = experiment: Ratio of ciprofloxacin IC50 to compound IC50 for chloroquine-resistant Plasmodium falciparum W2 infected in erythrocytes after 96 hrs; format: functional
Plasmodium falciparum [17] = experiment: Ratio of ciprofloxacin IC50 to compound IC50 for chloroquine-susceptible Plasmodium falciparum 3D7 infected in erythrocytes after 96 hrs; format: functional
Plasmodium falciparum [18] = experiment: Ratio of ciprofloxacin IC50 to compound IC50 for atovaquone-resistant Plasmodium falciparum Tm90C2b infected in erythrocytes after 96 hrs; format: functional
[19] = Therapeutic index, ratio of LD50 for rhesus monkey LLC-MK2 cells to IC50 for Toxoplasma gondii RH tachyzoites; format: cell-based; settings: read-out: Ratio LD50/IC50
Plasmodium falciparum [20] = experiment: Ratio of ciprofloxacin IC50 to compound IC50 for chloroquine-resistant Plasmodium falciparum W2 infected in erythrocytes after 48 hrs; format: functional

Structure (SMILES) | IC50 (Toxoplasma gondii [1]) | IC50 (Plasmodium falciparum [2]; read-out: IC50) | IC50 (Toxoplasma gondii [3]) | CC50 at 48 h [4] | IC50 (Plasmodium falciparum [5]) | half-life at 100 µM [6] | IC50 (Plasmodium falciparum [7]) | CC50 at 72 h [8] | IC50 (Plasmodium falciparum [9]) | half-life at 100 µM [10] | IC50 (Plasmodium falciparum [11]) | IC50 (Plasmodium falciparum [12]) | also measured
CCOC(=O)c1cn(C2CC2)c2cc(N3CCN(Cc4ccccc4)CC3)c(F)cc2c1=O | 1.24 µM | 2.56 µM | 1.7 µM | > 30 µM | 0.49 µM | > 76 h | 0.32 µM | 57 µM | 1.61 µM | > 76 h | 1.08 µM | 2.35 µM | –
CCOC(=O)c1cn(C2CC2)c2cc(N3CCN(CCC45CC6CC(CC(C6)C4)C5)CC3)c(F)cc2c1=O | 0.46 µM | 2.46 µM | 0.92 µM | 27.8 µM | 0.71 µM | > 76 h | 0.41 µM | > 100 µM | 2.06 µM | > 76 h | 1 µM | 2.23 µM | Ratio IC50 (Plasmodium falciparum [13]): 47; Ratio IC50 (Plasmodium falciparum [14]): 29; selectivity ratio [15]: > 100; Ratio IC50 (Plasmodium falciparum [16]): 7; Ratio IC50 (Plasmodium falciparum [17]): 31; Ratio IC50 (Plasmodium falciparum [18]): 7; selectivity ratio [19]: > 60; Ratio IC50 (Plasmodium falciparum [20]): 60
O=C1C(O)=C([C@H]2CC[C@H](c3ccc(Cl)cc3)CC2)C(=O)c2ccccc21 [ATOVAQUONE] | – | > 10 µM | – | – | 0.002 µM | – | 0.0019 µM | – | 0.0039 µM | – | 0.0023 µM | 0.388 µM | –
CCOC(=O)c1cn(C2CC2)c2cc(N3CCNCC3)c(F)cc2c1=O [CIPROFLOXACIN ETHYL ESTER] | 0.42 µM | 3.56 µM | 0.96 µM | > 30 µM | 0.84 µM | > 76 h | 0.89 µM | > 40 µM | 3.67 µM | > 76 h | 2.33 µM | 2.27 µM | –
O=C(O)c1cn(C2CC2)c2cc(N3CCNCC3)c(F)cc2c1=O [CIPROFLOXACIN] | – | – | – | – | 16.8 µM | – | 12.8 µM | – | 122 µM | – | 47 µM | 15.3 µM | IC50 (Plasmodium falciparum [2]): 71.8 µM
CCc1nc(N)nc(N)c1-c1ccc(Cl)cc1 [PYRIMETHAMINE] | 0.12 µM | 0.0146 µM | 0.24 µM | – | 0.0023 µM | – | 0.0021 µM | – | 0.0104 µM | – | 0.0133 µM | 0.0014 µM | –
C=C[C@H]1CN2CC[C@H]1C[C@H]2[C@H](O)c1ccnc2ccc(OC)cc12 [QUININE] | – | 1.07 µM | – | – | – | – | 0.112 µM | – | 0.917 µM | – | – | – | –

Source: ChEMBL document CHEMBL3217739 (Medchemcomm, 2011)
